This is an account of results in patent publication US20050220865A1, “Compressed composition comprising magnesium salt” (priority 2004, published 2005).

For data set [1] the following is noted: cited from earlier work; for USP 27/NF22 Solubility: USP 27/NF22 solubility term.
Data set [2] can be described thus: Storage stability of USP <711> dissolution profile at 40° C. and 75% relative humidity. It is filed as physicochemical. To be noted: FIG. 4; stored at 40° C. and 75% relative humidity up to 2 months; protected from moisture. On the procedure: By “pharmaceutically acceptable storage conditions” is meant storage at 25° C. and 60% relative humidity (RH) in a tight, sealed container-enclosure system. The storage conditions employed herein (40° C. and 75% RH) in evaluating formulations are used in the pharmaceutical industry to conduct accelerated stability testing of formulations such that a period of 2 months under these conditions is generally accepted to equal a period of 1 year under pharmaceutically acceptable storage conditions (25° C. and 60% relative humidity).
(§1) USP 27/NF22 specification for magnesium oxide tablets is not less than 75% (O) of the labeled amount of MgO is dissolved in 45 minutes. Dissolution testing is performed using apparatus II with 900 mL of 0.1 N hydrochloric acid maintained at 37° C. and agitated at 75 rpm. Samples are withdrawn at after 45 minutes of testing. The amount of MgO dissolved is then determined using atomic absorption (AA) spectrophotometry at a wavelength of 285.2 nm using filtered portions of the solution under test, diluted with Dissolution Medium. A standard curve is generated using a magnesium standard solution of known concentration in the same medium.
The initial dissolution profile for each of the prior art and present formulations is determined as described herein. […] At monthly intervals, the dissolution profile of the formulations is determined again. […]

Data set [3] in a line: Magnesium oxide tablet monograph USP <711> dissolution. In kind it is physicochemical. To be noted: FIG. 5; binary mixture of heavy grade magnesium oxide, USP with excipient. As for the experimental part:
The following drawings are given by way of illustration only, and thus are not intended to limit the scope of the present invention. The USP27/NF22 monograph for magnesium oxide tablets specifies that the dissolution method is to be executed using the general conditions of chapter <711> with 900 mL of 0.1 N hydrochloric acid, a paddle rotation speed of 75 RPM, and a sampling timepoint of 45 minutes.
as §1

Consider `[F-].[F-].[Mg+2]` [MgF2], for which, in data set [1], the “USP 27/NF22 Solubility” value was “Practically Insoluble” and the “Solubility in Neutral Water” value is recorded as 0.0002 g/100 mL.
Regarding `[O]=[Mg]` [MgO, magnesium oxide, reference compound], in data set [1], the “USP 27/NF22 Solubility” value is reported as “Practically Insoluble” and the “Solubility in Neutral Water” value is listed as 0.00062 g/100 mL. The “dissolution of magnesium from pure magnesium oxide” value in data set [2] was “suitable dissolution”.
For `O=C([O-])CC(O)(CC(=O)[O-])C(=O)[O-].[Na+].[Na+].[Na+]` [sodium citrate], the “influence of excipient on dissolution of magnesium” value in data set [3] is “decrease dissolution”.
In the case of potassium phosphate, the “influence of excipient on dissolution of magnesium” value in data set [3] is given as “decrease dissolution”.
